# Laboratory results reported in US20250270316A1, “PHARMACEUTICAL COMBINATION AND USE THEREOF” (TIANJIN LIPOGEN TECHNOLOGY CO., LTD, priority 2021, published 2025).
# “And” between values parts separate entries of the source, which are not always exact repeats. Equal entries are not always repeated.
# B1: Tislelizumab: marketed PD-1 inhibitor monoclonal antibody (antibody, chains of the INN, looked up)
# heavy: QVQLQESGPGLVKPSETLSLTCTVSGFSLTSYGVHWIRQPPGKGLEWIGVIYADGSTNYNPSLKSRVTISKDTSKNQVSLKLSSVTAADTAVYYCARAYGNYWYIDVWGQGTTVTVSSASTKGPSVFPLAPCSRSTSESTAALGCLVKDYFPEPVTVSWNSGALTSGVHTFPAVLQSSGLYSLSSVVTVPSSSLGTKTYTCNVDHKPSNTKVDKRVESKYGPPCPPCPAPPVAGGPSVFLFPPKPKDTLMISRTPEVTCVVVAVSQEDPEVQFNWYVDGVEVHNAKTKPREEQFNSTYRVVSVLTVVHQDWLNGKEYKCKVSNKGLPSSIEKTISKAKGQPREPQVYTLPPSQEEMTKNQVSLTCLVKGFYPSDIAVEWESNGQPENNYKTTPPVLDSDGSFFLYSKLTVDKSRWQEGNVFSCSVMHEALHNHYTQKSLSLSLG
# light: DIVMTQSPDSLAVSLGERATINCKSSESVSNDVAWYQQKPGQPPKLLINYAFHRFTGVPDRFSGSGYGTDFTLTISSLQAEDVAVYYCHQAYSSPYTFGQGTKLEIKRTVAAPSVFIFPPSDEQLKSGTASVVCLLNNFYPREAKVQWKVDNALQSGNSQESVTEQDSKDSTYSLSSTLTLSKADYEKHKVYACEVTHQGLSSPVTKSFNRGEC
# B2: Camrelizumab: marketed PD-1 inhibitor monoclonal antibody (antibody, chains of the INN, looked up, V domains shown)
# VH: EVQLVESGGGLVQPGGSLRLSCAASGFTFSSYMMSWVRQAPGKGLEWVATISGGGANTYYPDSVKGRFTISRDNAKNSLYLQMNSLRAEDTAVYYCARQLYYFDYWGQGTTVTVSS
# VL: DIQMTQSPSSLSASVGDRVTITCLASQTIGTWLTWYQQKPGKAPKLLIYTATSLADGVPSRFSGSGSGTDFTLTISSLQPEDFATYYCQQVYSIPWTFGGGTKVEIK
# Assays:
# Assay type in all cases: in vivo, mouse
# [1] = system: colorectal cancer MC38 humanized PD1; experiment: Example 10.1: MC38 humanized PD1 xenograft model, marketed PD-1 inhibitors and Imiquimod; conditions: i.t. every other day x3; PD-1 antibody 10 mg/kg, Imiquimod (LPG2005) 5 mg/kg, combinations as single preparation
# Description: (§1) Tumor cells were cultured and passaged, cells were collected at the logarithmic phase, and formulated into a concentration of (1.0×10^7) per milliliter of cell suspension with 0.1 ml (with a cell number of 1.0×10^6) being injected into the right flank of the mice, the tumor grew to a diameter of about 5 mm within about 10 days, and the model was successfully established, they were randomly divided into 8 groups.
# (§2) Tumor weight inhibitory rate=[1−average tumor weight of experimental group (G2/G3/G4)/average tumor weight of negative control group G1)]×100%.
# 10.1 Anti-Tumor Effect of Composite Preparation (Single Dosage Form) Consisting of a Marketed PD-1 or PD-L1 Inhibitor and a TLR7/8 Agonist Imiquimod
# After a colorectal cancer MC38 humanized PD1 subcutaneous xenograft tumor model was successfully established, random grouping was performed, and each group had 6-8 mice, which were administered once every two days with a total of 3 times.
# [2] = system: colorectal cancer MC38 humanized CD274 cell; experiment: Example 10.2: MC38 humanized CD274 xenograft model, Durvalumab or RB0005 and Imiquimod; conditions: i.t. every other day x3; Durvalumab or RB0005 1 mg/kg, Imiquimod (LPG2005) 5 mg/kg, combinations as single preparation
# Description: as §1, §2
# (§3) After a colorectal cancer MC38 humanized CD274 cell subcutaneously-Xenograft tumor model in mice was successfully established, random grouping was performed, and each group had 6-8 mice, which were administered once every two days with a total of 3 times.
# [3] = system: colorectal cancer MC38 humanized CD274 cell; experiment: Example 8: MC38 humanized CD274 xenograft model, RB0005 and Gardiquimod; conditions: i.t. every other day x3; RB0005 1 mg/kg, Gardiquimod 5 mg/kg, combination as single preparation
# Description: as §1, §2
# Anti-Tumor Effect of Pharmaceutical Combination Consisting of PD-L1 Inhibitor RB0005 and Other Types of TLR7/8 Agonists (Gardiquimod)
# as §3
# [4] = system: colorectal cancer MC38 humanized CD274 cell; experiment: Example 9: MC38 humanized CD274 xenograft model, RB0005 and Resiquimod; conditions: i.t. every other day x3; RB0005 1 mg/kg, Resiquimod 5 mg/kg, combination as single preparation
# Description: as §1, §2
# Anti-Tumor Effect of Pharmaceutical Combination Consisting of PD-L1 Inhibitor RB0005 and Other Types of TLR7/8 Agonists (Resiquimod)
# as §3
# [5] = system: colorectal cancer MC38 humanized CD274 cell; experiment: Example 6: MC38 humanized CD274 xenograft model, LPG2006 single dosage form with different Imiquimod doses; conditions: i.t. every other day x3
# Description: as §1, §2, §3
# [6] = system: colorectal cancer MC38 humanized CD274 cell; experiment: Example 7: MC38 humanized CD274 xenograft model, intraperitoneal vs intratumoral administration; conditions: every other day x3
# Description: as §1, §2, §3
# colorectal cancer MC38 = experiment: Example 3: MC38 xenograft tumor model in mice, RB0005 and different doses of Imiquimod; conditions: i.t. every other day x3; RB0005 1 mg/kg (G2), Imiquimod 5 mg/kg (G5), both in single dosage form (G8)
# Description: as §1, §2
# A colorectal cancer MC38 Xenograft tumor model in mice was used to test an anti-tumor effect of a pharmaceutical combination consisting of a PD-L1 inhibitor RB0005 and different doses of TLR7/TLR8 agonists Imiquimod, that is, the inhibitory effect on the growth of subcutaneous xenograft tumor in mice.
# After a subcutaneous xenograft tumor model in mice was successfully established, random grouping was performed, and each group had 8 mice, which were administered once every two days.
# [7] = system: colorectal cancer CT26 humanized CD274 cell; experiment: Example 11: CT26 humanized CD274 xenograft model, LPG2006; conditions: CT26.sgcd274 CD274, i.t. every other day x3, Imiquimod 5 mg/kg
# Description: as §1, §2
# Combination LPG2006 (Single Dosage Form) Consisting of PD-L1 Inhibitor RB0005 and Imiquimod, CT26 Tumor Model
# After a colorectal cancer CT26 humanized CD274 cell subcutaneous xenograft tumor model in mice was successfully established, random grouping was performed, and each group had 6-8 mice, which were administered once every two days with a total of 3 times.
# [8] = system: colorectal carcinoma MC38; experiment: Example 1: MC38 subcutaneous xenograft tumor model in mice, RB0005 and Imiquimod; conditions: as of the end; i.t. every other day; RB0005 1 mg/kg, Imiquimod 5 mg/kg, combination in single dosage form; tumor volume >2000 mm^3 counted as death
# Description: C57/BL6JNifdc mouse, female, body weight of 17-22 g, aged 6-8 weeks, SPF grade, purchased from Beijing Vital River Laboratory Animal Technology Co., Ltd. [Experimental Animal Quality Certificate No.: SCXK (Beijing) 2016-0006].
# as §1, §2
# The anti-tumor effect of a pharmaceutical combination composed of PD-L1 inhibitor RB0005 and a TLR7/TLR8 agonist Imiquimod (LPG2005) was tested using a xenograft tumor model, i.e., the inhibitory effect on the growth of subcutaneous xenograft tumor in mice.
# After successfully establishing a subcutaneous xenograft tumor model of colorectal carcinoma MC38 in mice, it was randomly grouped with 6-8 mice per group. The mice were administered once every two days, with a total of three times followed by observation until 15 days.
# [9] = system: colorectal cancer MC38 humanized CD274 cell; experiment: Example 12: MC38 humanized CD274 xenograft model, sequential administration of Imiquimod and RB0005; conditions: i.t.; RB0005 1 mg/kg, Imiquimod 5 mg/kg; G4 sequential: agonist first, PD-L1 inhibitor after 48 h, total of 3 times
# Description: as §1, §2
# [10] = system: colorectal carcinoma MC38 (humanized PD-1 model); experiment: Example 2: humanized PD-1 MC38 subcutaneous xenograft tumor model in mice, RB0004 and Imiquimod; conditions: Imiquimod 5 mg/kg i.t., RB0004 10 mg/kg i.p.
# Description: as §1, §2
# The anti-tumor effect of a pharmaceutical combination composed of PD-1 inhibitor RB0004 and a TLR7/TLR8 agonist Imiquimod was tested using a xenograft tumor model, i.e., the inhibitory effect on the growth of subcutaneous xenograft tumor in mice.
# After successfully establishing a humanized PD-1 subcutaneous xenograft tumor model of colorectal carcinoma MC38 in mice, they were randomly grouped with 8 mice per group and administered once every two days.
# [11] = Imiquimod 6.32 mg/kg (G4), with RB0005 1 mg/kg in single dosage form (G7)
# [12] = Imiquimod 20 mg/kg (G5), with RB0005 1 mg/kg in single dosage form (G8)
# [13] = RB0005 1 mg/kg (G2), Imiquimod 2 mg/kg (G3), both in single dosage form (G6)
# [14] = intratumoral injection, RB0005 1 mg/kg (G4), Imiquimod 5 mg/kg (G6), LPG2006 single preparation (G8)
molecule,measurement,setting,value
Toripalimab: marketed PD-1 inhibitor monoclonal antibody,IRTW (tumor weight inhibition rate),[1],49.7%
same,Tumor Weight,[1],0.92 g
Durvalumab: marketed anti PD-L1 monoclonal antibody,IRTW (tumor weight inhibition rate),[2],21% and 20.9%
same,Tumor Weight,[2],1.13 g
CCNCc1nc2c(N)nc3ccccc3c2n1CC(C)(C)O [Gardiquimod],IRTW (tumor weight inhibition rate),[3],42% and 41.6%
same,Tumor Weight,[3],1.81 g
CCOCc1nc2c(N)nc3ccccc3c2n1CC(C)(C)O [Resiquimod],IRTW (tumor weight inhibition rate),[4],40% and 40.2%
same,Tumor Weight,[4],1.81 g
Sintilimab: marketed PD-1 inhibitor monoclonal antibody,IRTW (tumor weight inhibition rate),[1],3.9%
same,Tumor Weight,[1],1.47 g
CC(C)Cn1cnc2c(N)nc3ccccc3c21 [Imiquimod],IRTW (tumor weight inhibition rate),[5]; [11],58.5%
same,Tumor Weight,[5]; [11],2.0 g
same,IRTW (tumor weight inhibition rate),[5]; [12],47.4%
same,Tumor Weight,[5]; [12],1.8 g
same,IRTW (tumor weight inhibition rate),[5]; [13],27.5%
same,Tumor Weight,[5]; [13],2.5 g
same,Tumor Weight,"[6]; intraperitoneal injection, RB0005 1 mg/kg (G3), Imiquimod 5 mg/kg (G5), LPG2006 single preparation (G7)",3.74 g
same,IRTW (tumor weight inhibition rate),[6]; [14],23.5%
same,Tumor Weight,[6]; [14],2.6 g
same,IRTW (tumor weight inhibition rate),colorectal cancer MC38,23.35%
same,Tumor Weight,colorectal cancer MC38,2.70 g
same,IRTW (tumor weight inhibition rate),[2],48.8%
same,Tumor Weight,[2],0.73 g
same,IRTW (tumor weight inhibition rate),[7]; LPG2006 (RB0005 1 mg/kg + LPG2005 5 mg/kg),42%
same,Tumor Weight,"[7]; RB0005 1 mg/kg, LPG2006 single preparation",1.05 g
same,survival rate in mice,[8],50%
same,IRTW (tumor weight inhibition rate),[9],34.8%
same,Tumor Weight,[9],1.30 g
same,IRTW (tumor weight inhibition rate),[10]; every other day x3,42.71%
same,Tumor Weight,[10]; every other day x3,3.62 g
same,survival rate in mice,"[10]; as of the end, every other day x3, combination in separate dosage forms",40%
same,growth of the tumor volume,[10]; vs solvent control,slower than that in the solvent control group
same,Tumor Weight,[1],1.93 g
B1,IRTW (tumor weight inhibition rate),[1],61.4%
same,Tumor Weight,[1],0.59 g
B2,IRTW (tumor weight inhibition rate),[1],19.6%
same,Tumor Weight,[1],1.23 g
